# pIC50: −log10 of the molar value.
# Tests used:
# IL-2 promoter = IL-2 promoter luciferase reporter assay in anti-CD3 activated Jurkat cells; type: cell-based; conditions: Homo sapiens, TCR-induced (anti-CD3) IL-2 promoter luciferase, 2 h pre-incubation
# Method: In order to confirm whether the compounds of the invention can pass through a cell membrane and inhibit the expression of IL-2 gene leading to T-cell proliferation, the present inventors firstly confirmed T-cell activity by detecting the activity of the luciferase fused on the downstream of IL-2 promoter.
# To investigate the activity of IL-2 promoter, Jurkat cells (1×10^6) were transfected with a IL-2 reporter plasmids using Superfect™ (Qiagen Inc.). After 24 hours of transfection, Jurkat cells were pre-incubated with compounds of various concentrations (1 uM-50 uM) for 2 hours and further cultured on 35mm plate pre-coated with 5 ug/ml of anti-CD3 antibody, resulting in T cell activation. The luciferase activity was measured using Berthold luminometer LB953. The IC50 (50% inhibition concentration) of the compounds of the invention on TCR-induced IL-2 promoter activation are shown in Table 2.
# GST-fused lck SH2 domain = target: T1, GST-fused lck SH2 domain (Homo sapiens, UniProt P06239); assay: Inhibition of in vitro binding of lck SH2 domain to its cognate pYEEI peptide (BIAcore 2000); conditions: IC50 class for inhibition of GST-lckSH2 binding to immobilized biotinylated […]pYEEIPI peptide; read-out: BOND DEGREE WITH SH2 OF 1ck
# T1 construct: GST (Glutathione transferase)-fused lck SH2 domain
# Method: The present inventors investigated the inhibition activity of phenyl derivatives on the interaction of GST (Glutathione transferase)-fused lck SH2 domain and a peptide […]pYEEIPI (comprising the sequence PYEEI, a cognate peptide of Lck SH2) by using a real time sensorgram (BIAcore 2000).
# At first, the biotinylated peptide was fixed on the surface of BIAcore analysis apparatus and then GST-lckSH2 protein was injected over the surface of the immobilized peptides. The binding of GST-lck SH2 with the peptide is represented as the resonance units (referred as “RU” hereinafter) and 1,000 RU corresponds to a change in surface concentration of 1 ng/mm^2. The binding of GST-lck with the fixed peptide causes the change of refractory index, leading to the increase of RU. In the mean time, when the binding of GST-lck with the fixed peptide is inhibited, RU decreases. Those results are represented in Table 1.
# skin allograft rejection = assay: Inhibition of skin allograft rejection (Balb/c tail skin grafted onto C57BL/6 mouse); type: in vivo
# Method: For the experiment, allogeneic Balb/c(H-2d) mouse-tail skin was grafted onto C57BL/6(H-2b) mouse. Generally 7-8 mice were assigned to each group. All the phenyl derivatives were dissolved in 100% ethanol, mixed with olive oil, and adjusted to the final concentration of ethanol therein less than 5%. […] Meanwhile, for the group of untreated mice, an olive oil-ethanol mixture was administered as a control. The grafted skin was monitored daily after the removal of the bandage on days 7-9. Rejection was defined as more than 80% necrosis of the graft epithelium.
# [1] = tested on: collagen-induced rheumatoid arthritis; assay: Inhibition of collagen-induced rheumatoid arthritis in DBA1/LacJ mice; type: in vivo, mouse; design: key: sum of 4 leg scores (0-4 each), max 16; conditions: 50 mg/kg/day i.p. daily; day 15 after treatment (day 36 after primary immunization); sum of scores of four legs, maximum 16; mean ± standard deviation
# Method: After 2 weeks, booster immunization was carried out with 50 μg C II/IFA. From the 3rd week after primary immunization, compounds of the present invention were injected daily into peritoneal cavities of 6-8 mice per group for 15-20 days.
# The vehicle control groups were injected daily with 100 μl of 5% ethanol-olive oil mixture in total 15-20 times. Widely used anti-rheumatic drug, Methotrexate, was dissolved in PBS and then injected to mice at 1 mg/kg/day every other day in total 8-10 times. Meanwhile, the compounds of the invention were dissolved in ethanol and then mulsified in olive oil, in which the final ethanol concentration was adjusted to 5% and the compounds of this invention was 50 mg/kg/day.
# From the 3rd week after primary immunization, the extent of edema and the joint swelling was monitored everyday to determine arthritic index. Arthitic index is the sum of the arthritic scores of all 4 legs and, therefore, maximum arthritis index of 16 can be achieved (e.g., [4 (maximum arthritic score)/leg]×[4 legs/mouse]=16 (maximum arthritis index/mouse)). […] was presented by the mean arthritis index±standard deviation of each mouse group.
# [2] = 100 mg/kg/day into abdominal cavity from day of transplantation until complete rejection
# T1 sequence (P06239 127-224 limits assumed): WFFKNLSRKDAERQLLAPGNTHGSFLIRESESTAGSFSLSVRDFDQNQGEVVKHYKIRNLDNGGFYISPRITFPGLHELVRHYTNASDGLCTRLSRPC
Compound,pIC50 (IL-2 promoter),pIC50 (GST-fused lck SH2 domain),Survival time of skin graft tissue (days ± variance) (skin allograft rejection; [2]) [days],Arthritis index [1],Survival time of skin graft tissue (days ± variance) (skin allograft rejection; Rapamycine 1 mg/kg/day) [days],Survival time of skin graft tissue (days ± variance) (skin allograft rejection; Rapamycine 4 mg/kg/day) [days]
"COC(=O)[C@H](Cc1ccc(O)c(O)c1)NC(=O)/C=C/c1ccc(O)c(O)c1 [Example 8, 3-(3,4-dihydroxy-phenyl)-(S)-2-[3-trans-(3,4-dihydroxy-phenyl)-acryloylamino]-propionic acid methyl ester]",4.96,4.60 to 5.00,15.2 ± 1.1,6.0 ± 1.1,,
"NC(=O)[C@@H](Cc1ccc(O)c(O)c1)OC(=O)/C=C/c1ccc(O)c(O)c1 [Example 57, (R)-3-(3,4-Dihydroxy-phenyl)-acrylic acid 2-(3,4-dihydroxy-phenyl)-1-carbamoyl ethyl ester]",5.28,4.30 to 4.60,13.1 ± 0.7,4.5 ± 1.2,,
"CN(C(=O)/C=C/c1ccc(O)c(O)c1)[C@@H](Cc1ccc(O)c(O)c1)C(=O)OC(C)(C)C [Example 41, 3-(3,4-dihydroxy-phenyl)-(S)-2-{[3-trans-(3,4-dihydroxy-phenyl)-acryloyl]-methyl-amino}-propionic acid tert-butyl ester]",4.80,4.30 to 4.60,13.7 ± 0.6,6.7 ± 1.6,,
"COC(=O)C(Cc1ccc(O)c(O)c1)NC(=O)c1ccc(O)c(O)c1 (stereo not shown) [Example 51, 2-(3,4-dihydroxy-benzoylamino)-3-(3,4-dihydroxy-phenyl)-propionic acid methyl ester]",4.76,> 5.00,12.5 ± 1.1,5.5 ± 0.5,,
"CC(C)OC(=O)[C@H](Cc1ccc(O)c(O)c1)NC(=O)/C=C/c1ccc(O)c(O)c1 [Example 12, 3-(3,4-dihydroxy-phenyl)-(S)-2-[3-trans-(3,4-dihydroxy-phenyl)-acryloylamino]-propionic acid isopropyl ester]",5.02,4.60 to 5.00,15.7 ± 0.8,5.1 ± 0.7,,
"CC(C)(C)OC(=O)[C@H](Cc1ccc(O)c(O)c1)NC(=O)/C=C/c1ccc(O)c(O)c1 [Example 13, 3-(3,4-dihydroxy-phenyl)-(S)-2-[3-trans-(3,4-dihydroxy-phenyl)-acryloylamino]-propionic acid tert-butyl ester]",5.14,4.30 to 4.60,14.5 ± 0.6,6.9 ± 1.1,,
"CN(C(=O)/C=C/c1ccc(O)c(O)c1)[C@@H](Cc1ccc(O)c(O)c1)C(N)=O [Example 42, N-[l-carbamoyl-2-(3,4-dihydroxy-phenyl)-ethyl]-(S)-3-trans-(3,4-dihydroxy-phenyl)-N-methyl-acrylamide]",4.84,4.60 to 5.00,14.3 ± 0.9,5.1 ± 1.9,,
"COC(=O)[C@@H](Cc1ccc(O)c(O)c1)NC(=O)CCc1ccc(O)c(O)c1 [Example 52, 3-(3,4-dihydroxy-phenyl)-2-[3-(3,4-dihydroxy-phenyl)-propionylamino]-propionic acid methyl ester]",4.68,4.60 to 5.00,13.4 ± 1.2,4.0 ± 0.7,,
"O=C(/C=C/c1ccc(O)c(O)c1)NCCc1ccc(O)c(O)c1 [Example 43, 3-(3,4-dihydroxy-phenyl)-N-[2-trans-(3,4-dihydroxy-phenyl)-ethyl]-acrylamide]",4.67,4.30 to 4.60,13.1 ± 0.9,6.0 ± 1.9,,
"COC(=O)[C@H](Cc1ccc(O)c(O)c1)N(C)C(=O)/C=C/c1ccc(O)c(O)c1 [Example 36, 3-(3,4-dihydroxy-phenyl)-(S)-2-{[3-trans-(3,4-dihydroxy-phenyl)-acryloyl]-methyl-amino}-propionic acid methyl ester]",4.82,4.30 to 4.60,12.9 ± 0.9,6.1 ± 1.9,,
"NC(=O)[C@H](Cc1ccc(O)c(O)c1)NC(=S)/C=C/c1ccc(O)c(O)c1 [Example 28, 3-(3,4-dihydroxy-phenyl)-(S)-2-[3-trans-(3,4-dihydroxy-phenyl)-thioacryloylamino]-propioneamide]",4.85,4.60 to 5.00,13.9 ± 0.9,5.8 ± 0.6,,
"COC(=O)[C@H](Cc1ccc(O)cc1)NC(=O)/C=C/c1ccc(O)c(O)c1 [Example 47, (S)-2-[trans-3-(3,4-dihydroxy-phenyl)-acryloylamino]-3-(4-hydroxy-phenyl)-propionic acid methyl ester]",4.68,4.30 to 4.60,11.7 ± 1.0,6.9 ± 1.1,,
"COC(=O)C(Cc1ccc(O)c(O)c1)NC(=O)NCc1ccc(O)c(O)c1 (stereo not shown) [Example 49, 2-[3-(3,4-dihydroxy-benzyl)-ureido]-3-(3,4-dihydroxy-phenyl)-propionic acid methyl ester]",4.69,4.60 to 5.00,13 ± 1.5,5.1 ± 0.9,,
"COC(=O)[C@@H](Cc1ccc(O)c(O)c1)OC(=O)/C=C/c1ccc(O)c(O)c1 [Example 54, (R)-3-(3,4-dihydroxy-phenyl)-acrylic acid 2-(3,4-dihydroxy-phenyl)-1-methoxycarbonyl ethyl ester]",5.35,4.60 to 5.00,13 ± 0.9,3.5 ± 1.1,,
"CO[C@H]1C[C@@H]2CC[C@@H](C)[C@@](O)(O2)C(=O)C(=O)N2CCCC[C@H]2C(=O)O[C@H]([C@H](C)C[C@@H]2CC[C@@H](O)[C@H](OC)C2)CC(=O)[C@H](C)/C=C(\C)[C@@H](O)[C@@H](OC)C(=O)[C@H](C)C[C@H](C)/C=C/C=C/C=C/1C [Rapamycine, reference compound]",,,,,12.7 ± 1.5,16.2 ± 1.0
"COC(=O)C(Cc1ccc(O)c(O)c1)NC/C=C/c1ccc(O)c(O)c1 (stereo not shown) [Example 53, 3-(3,4-dihydroxy-phenyl)-2-[3-(3,4-dihydroxy-phenyl)-arylamino]-propionic acid methyl ester]",4.61,,11.9 ± 1.1,9.8 ± 1.2,,
"CN(C(=O)/C=C/c1ccc(O)c(O)c1)[C@H](Cc1ccc(O)c(O)c1)C(N)=O [Example 35, N-[l-carbamoyl-2-(3,4-dihydroxy-phenyl)-ethyl]-(R)-3-trans-(3,4-dihydroxy-phenyl)-N-methyl-acrylamide]",5.01,4.60 to 5.00,,6.8 ± 1.9,,
"CC(C)(C)OC(=O)[C@@H](Cc1ccc(O)c(O)c1)NC(=O)/C=C/c1ccc(O)c(O)c1 [Example 6, 3-(3,4-dihydroxy-phenyl)-(R)-2-[3-trans-(3,4-dihydroxy-phenyl)-acryloylamino]propionic acid tert-butyl ester]",5.11,4.60 to 5.00,,5.8 ± 0.9,,
"CCCOC(=O)[C@@H](Cc1ccc(O)c(O)c1)NC(=O)/C=C/c1ccc(O)c(O)c1 [Example 4, 3-(3,4-dihydroxy-phenyl)-(R)-2-[3-trans-(3,4-dihydroxy-phenyl)-acryloylamino]-propionic acid propyl ester]",5.11,> 5.00,,5.6 ± 0.5,,

# From US20040082664A1, “Derivatives of hydroxyphenyl, a method for preparing thereof and their pharmaceutical composition” (priority 2002, published 2004)
